Measured values reported in paper PMC6316600, “Analgesic Activity of Acid-Sensing Ion Channel 3 (ASIС3) Inhibitors: Sea Anemones Peptides Ugr9-1 and APETx2 versus Low Molecular Weight Compounds” (Marine Drugs, 2018).
“Also recorded” adds a separate entry of the source. Bridge positions count the residues as written; N and C are the ends. Peptide text beside a SMILES is read from it.

Columns and labels:
[1] = system: animal models of pain; conditions: cited from earlier work
[2] = molecular target: T1, human ASIC3 (Homo sapiens, UniProt Q9UHC3); experiment: Inhibition of transient hASIC3 current, two-electrode voltage clamp, Xenopus laevis oocytes; format: cell-based
T1 construct: host or cells: Xenopus laevis oocytes (cRNA injection)
T1 sequence (Q9UHC3 1-531): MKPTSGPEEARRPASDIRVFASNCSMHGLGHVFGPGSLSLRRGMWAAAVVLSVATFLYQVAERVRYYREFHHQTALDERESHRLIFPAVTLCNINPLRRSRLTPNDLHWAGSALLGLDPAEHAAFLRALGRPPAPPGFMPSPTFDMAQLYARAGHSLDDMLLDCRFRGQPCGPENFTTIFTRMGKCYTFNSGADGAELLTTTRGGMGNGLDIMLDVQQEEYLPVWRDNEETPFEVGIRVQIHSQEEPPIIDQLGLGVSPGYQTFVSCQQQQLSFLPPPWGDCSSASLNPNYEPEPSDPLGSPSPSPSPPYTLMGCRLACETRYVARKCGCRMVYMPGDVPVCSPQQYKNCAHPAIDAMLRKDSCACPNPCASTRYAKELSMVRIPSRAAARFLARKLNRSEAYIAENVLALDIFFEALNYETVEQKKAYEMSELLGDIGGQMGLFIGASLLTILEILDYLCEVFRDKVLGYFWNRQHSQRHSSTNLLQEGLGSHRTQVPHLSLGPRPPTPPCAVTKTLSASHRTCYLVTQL
Protocol: The activity of ligands was checked on human ASIC3 (hASIC3) channels expressed in Xenopus laevis oocytes. […] Two different protocols were used to reveal the effects of ligands on sustained and transient components of acid-induced hASIC3 currents. The influence of the compounds on the transient current amplitude was estimated after preincubation for 15 s before the activation in a low alkali bath solution (pH 7.8), which ensured an absence of steady-state desensitization for the transient current (Figure 1A). The compounds’ inhibition effectiveness was calculated using the value of maximal amplitudes. […] The inhibitory effect was concentration-dependent and fit well using a logistic equation.
Figure 1 Comparison of ligands’ antagonistic effects on hASIC3 channels. Whole-cell currents were induced by pH drops and recorded at the holding potential −50 mV. (A) Effect of ligands on the transient component of current at conditioning pH 7.8. The control trace is shown first; (B) Effect of ligands on the sustained component at conditioning pH 7.3. The black line is the control trace, and the red line is the trace of activation in the presence of a ligand. Dose-response curves for transient (C) and sustained (D) currents’ inhibitions are shown. Data are shown as mean ± SEM (n = 4–6) and fitted with the logistic equation (solid lines).
X. laevis oocytes were removed surgically and defolliculated by collagenase (Sigma-Aldrich, Moscow, Russia). Oocytes were injected with 2.5 to 10 ng of human ASIC3 cRNA (AF057711.1). The cRNA transcripts were synthesised from a NaeI-linearized ASIC3 cDNA template (pcDNA3.1+humanASIC3 subcloned from clone EX-Q0260- B02 (GeneCopoeia, Inc., Rockville, MD USA) using a HiScribe T7 High Yield RNA Synthesis Kit (New England Biolabs, Ipswich, MA, USA) according to the manufacturer’s protocol for capped transcripts. After the injection, oocytes were kept for 3 to 6 days at 19° in a ND-96 medium containing (in mM) 96 NaCl, 2 KCl, 1.8 CaCl2, 1 MgCl2, and 5 HEPES titrated to pH 7.4 with NaOH supplemented with gentamycin (50 µg/mL). Two-electrode voltage clamp recordings were performed using a GeneClamp 500 amplifier (Axon Instruments, Union City, CA, USA), and the data were filtered at 20 Hz and digitized at 100 Hz by an AD converter L780 (LCard, Moscow, Russia) using in-house software. To induce transient and/or sustained currents, two different protocols with different conditioning pH were used. Microelectrodes were filled with a 3 M KCl solution. The working buffer solution was ND-96 titrated by NaOH to pH 7.8 or 7.3. The solution for the pH shift was constructed based on the ND-96 solution, in which 5 mM HEPES was replaced with 10 mM acetic acid (pH 4.0) or 10 mM MES (pH 5.5) in a supplementary 0.1% BSA solution. The duration of the activation pulses was 3.5 s.
The analysis of the electrophysiological data was performed using the OriginPro 8.6 programme.

[3] = system: mice; experiment: Open field test; format: in vivo, CD-1 mice; conditions: 1 mg/kg intramuscular, 4 h before; n = 6–7
Protocol: An open field test was carried out on mice to estimate the possible sedative effects of compounds administration. No statistically significant changes were detected between ASIC3 antagonist-treated groups and the control animals group in 5-min observations of 12 parameters.
Figure 2 Open field experiments on mice. Administration of compounds at a 1 mg/kg dose intramuscularly was done 4 h before of the measurements. (A) Travelling distance and (B) locomotion activity presented as mean ± SEM for 5-min recording period (n = 6–7).
Adult male CD-1 mice (Animal Breeding Facility Branch of Shemyakin-Ovchinnikov Institute of Bioorganic Chemistry, Russian Academy of Sciences, Pushchino, Russia) weighing 20–25 g were used. Animals that originally passed clinical examination that confirmed no deviations in health were divided into groups (at least eight male mice per group) using the principle of randomization. The average body weight of animals in each group was not statistically different between groups. Animals were housed at room temperature (23 ± 2 °C) and subjected to a 12-h light-dark cycle with food and water available ad libitum. All experiments were performed after receiving approval from the Animal Care and Use Committee of the Branch of the Institute of Bioorganic Chemistry, Russian Academy of Sciences (IBCh RAS) (Pushchino, Russia Federation). The samples were administered intramuscularly 2 h before testing (4 h in the open field test). The initial dose of 1 mg/kg was investigated for all samples, which was further reduced 5, 50, and 500 times for peptides.
In the locomotion measurements, exploration and anxiety were evaluated in the motor activity test on a computerized TSE Multi Conditioning System (TSE Systems GmbH, Bad Homburg, Germany). Four hours after the administration of the sample, the measurement was made, which lasted for 3 min. […]
The data significance in animal tests was determined by an analysis of variance followed by a Tukey’s test. […]

[4] = hASIC3 in X. laevis oocytes, conditioning pH 7.8, mean ± SEM (n = 4–6)

Row | SMILES | Analgesic effect ([1]; 0.1–0.5 mg/kg) | Rank of in vitro potency, transient component of hASIC3 current [2] | Concentration needed to block transient current relative to APETx2 ([2]; Ugr9-1 versus APETx2) | Lower efficacy in inhibition of the transient component relative to APETx2 ([2]; Ugr9-1 versus APETx2) | Inhibition of transient current (in words) ([2]; conditioning pH 7.8) | Hill coefficient, transient currents [2, 4] | Travelled distance, time spent freezing, distance in the central area versus control [3] | Analgesic and anti-inflammatory effect ([1]; mice, 1–10 mg/kg) | IC50 ([2]; hASIC3 in X. laevis oocytes, conditioning pH 7.8, 15 s preincubation, holding -50 mV, logistic fit, mean ± SEM (n = 4–6), read-out: IC50, transient currents) | Lower efficacy in vitro relative to APETx2 ([2]; sevanol versus APETx2) | Lower efficacy in vitro relative to Ugr9-1 ([2]; sevanol versus Ugr9-1)
1 | CC[C@H](C)[C@H](N)C(=O)N[C@@H](CO)C(=O)N[C@H](C(=O)N[C@@H](CC(=O)O)C(=O)N1CCC[C@H]1C(=O)N1CCC[C@H]1C(=O)N[C@H]1CSSC[C@@H](C(=O)NCC(=O)N[C@@H](C)C(=O)N[C@H](C(=O)O)C(C)C)NC(=O)CNC(=O)[C@H](Cc2ccc(O)cc2)NC(=O)[C@H](C)NC(=O)[C@H](CC(=O)O)NC(=O)[C@H](Cc2ccc(O)cc2)NC(=O)[C@H](C(C)C)NC(=O)[C@@H]2CSSC[C@H](NC(=O)[C@H](Cc3ccccc3)NC(=O)[C@H](CCCNC(=N)N)NC1=O)C(=O)N[C@@H](Cc1ccc(O)cc1)C(=O)N[C@@H](Cc1c[nH]cn1)C(=O)N[C@@H](CCCNC(=N)N)C(=O)N[C@@H](CC(=O)O)C(=O)NCC(=O)N[C@@H](CO)C(=O)NCC(=O)N[C@@H](CC(N)=O)C(=O)N2)[C@@H](C)CC [Ugr9-1] (H-ISIDPPCRFCYHRDGSGNCVYDAYGCGAV-OH; disulfide 7-26, 10-19; N-terminus and C-terminus assumed) | significant analgesic effect | APETx2 > Ugr9-1 > sevanol | 30 times | 30 times | completely blocked the transient current of ASIC3; also recorded: decreased transient and sustained components of the current | 1.86 ± 0.16 | each of these differences was nonsignificant |  |  |  | 
2 | O=C(O)Cc1ccccc1Nc1c(Cl)cccc1Cl [diclofenac, reference compound] |  |  |  |  | not detected |  |  |  |  |  | 
3 | O=C(O)C[C@H](C(=O)O)[C@@H](OC(=O)C1=Cc2cc(O)c(O)cc2[C@@H](c2ccc(O)c(O)c2)[C@@H]1C(=O)O[C@@H](C(=O)O)[C@H](CC(=O)O)C(=O)O)C(=O)O [sevanol] |  | APETx2 > Ugr9-1 > sevanol |  |  | had much less potency and inhibited transient currents in submillimolar concentrations; also recorded: complete inhibition was observed; also recorded: decreased transient and sustained components of the current | 1.98 ± 0.24 | each of these differences was nonsignificant | pronounced analgesic and anti-inflammatory activity | 331 ± 21 µM | 1000 fold | 35 fold
